From ChEMBL document CHEMBL1201862, “PubChem BioAssay data set” (2004)
Activity calls are given as the source filed them.

Tests used:
[1] = Luminescence Cell-Based Dose Confirmation HTS to Identify Activators of 5'UTR Stem-Loop Driven Alpha-Synuclein mRNA Translation in H4 Neuroglioblastoma Cells. [Related pubchem assays: 1829 (Project Summary), 1814 (Primary HTS)]; type: functional
[2] = Luminescence Cell-Based Dose Response HTS to Identify Activators of Luciferase Translation or Activity in H4 […] Cells. [Related pubchem assays: 1829 (Project Summary), 1814 (Primary HTS)]; type: functional
H4 = test: Luminescence Cell-Based Dose Response HTS to Identify Activators of 5'UTR Stem-Loop Driven Prion Protein mRNA Translation in H4 Neuroglioblastoma Cells. [Related pubchem assays: 1829 (Project Summary), 1814 (Primary HTS)]; type: functional; settings: Homo sapiens
[3] = biological target: Potassium voltage-gated channel subfamily KQT member 2 (Rattus norvegicus, UniProt O88943, W236L); test: KCNQ2 channel potentiators, dose response, mechanism study for KCNQ2 potentiator project, cell-based, automated electrophysiology (AID 2603); type: functional
Sequence of Potassium voltage-gated channel subfamily KQT member 2 (O88943 whole entry W236L): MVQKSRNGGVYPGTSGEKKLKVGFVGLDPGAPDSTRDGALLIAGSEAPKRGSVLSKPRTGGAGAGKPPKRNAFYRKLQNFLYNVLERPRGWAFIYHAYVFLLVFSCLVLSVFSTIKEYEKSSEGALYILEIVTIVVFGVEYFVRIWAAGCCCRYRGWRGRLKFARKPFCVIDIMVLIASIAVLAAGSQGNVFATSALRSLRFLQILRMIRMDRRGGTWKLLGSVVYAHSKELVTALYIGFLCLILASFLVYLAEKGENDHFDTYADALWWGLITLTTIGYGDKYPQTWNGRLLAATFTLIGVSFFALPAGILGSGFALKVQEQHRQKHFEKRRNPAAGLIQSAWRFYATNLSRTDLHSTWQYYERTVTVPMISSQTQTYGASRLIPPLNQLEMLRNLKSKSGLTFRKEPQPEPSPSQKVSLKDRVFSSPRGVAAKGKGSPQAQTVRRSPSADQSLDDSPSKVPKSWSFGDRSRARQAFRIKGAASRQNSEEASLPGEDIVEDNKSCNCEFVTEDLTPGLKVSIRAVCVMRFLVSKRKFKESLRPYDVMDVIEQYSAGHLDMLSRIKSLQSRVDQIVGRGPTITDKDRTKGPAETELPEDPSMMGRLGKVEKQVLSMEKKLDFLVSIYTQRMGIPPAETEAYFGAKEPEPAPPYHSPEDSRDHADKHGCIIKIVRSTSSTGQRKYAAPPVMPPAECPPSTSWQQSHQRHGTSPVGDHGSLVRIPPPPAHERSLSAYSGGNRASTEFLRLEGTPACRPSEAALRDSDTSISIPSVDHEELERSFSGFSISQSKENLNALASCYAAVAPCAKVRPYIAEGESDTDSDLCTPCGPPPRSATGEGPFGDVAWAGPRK

[4] = biological target: T1, Replicative DNA helicase DnaB (Mycobacterium tuberculosis, UniProt P9WMR3); test: DnaB intein splicing inhibitors, dose response, biochemical, cell-free fluorescence (AID 449749); type: functional
T1 sequence (P9WMR3 whole entry): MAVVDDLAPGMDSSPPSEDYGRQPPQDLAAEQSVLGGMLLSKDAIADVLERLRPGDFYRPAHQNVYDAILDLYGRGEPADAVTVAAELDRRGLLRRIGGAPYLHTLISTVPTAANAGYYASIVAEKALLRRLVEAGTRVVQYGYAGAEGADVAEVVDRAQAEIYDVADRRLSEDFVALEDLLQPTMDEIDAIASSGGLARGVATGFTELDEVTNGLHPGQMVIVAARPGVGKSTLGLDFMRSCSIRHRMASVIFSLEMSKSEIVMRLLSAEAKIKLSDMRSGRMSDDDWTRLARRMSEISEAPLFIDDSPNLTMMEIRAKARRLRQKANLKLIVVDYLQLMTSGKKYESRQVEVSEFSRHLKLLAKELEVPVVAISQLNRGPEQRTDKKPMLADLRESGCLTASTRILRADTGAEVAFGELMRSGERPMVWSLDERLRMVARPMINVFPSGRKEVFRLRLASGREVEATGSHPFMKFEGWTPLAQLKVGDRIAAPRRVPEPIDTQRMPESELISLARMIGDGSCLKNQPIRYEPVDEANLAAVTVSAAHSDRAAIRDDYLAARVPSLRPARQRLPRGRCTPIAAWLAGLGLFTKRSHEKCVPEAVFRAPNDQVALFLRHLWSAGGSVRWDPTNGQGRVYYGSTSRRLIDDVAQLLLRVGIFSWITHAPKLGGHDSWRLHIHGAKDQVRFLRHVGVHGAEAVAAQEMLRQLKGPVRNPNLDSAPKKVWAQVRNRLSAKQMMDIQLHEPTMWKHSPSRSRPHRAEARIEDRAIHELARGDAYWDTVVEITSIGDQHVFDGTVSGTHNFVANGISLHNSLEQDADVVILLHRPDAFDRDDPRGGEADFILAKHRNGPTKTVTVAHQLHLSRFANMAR

[5] = biological target: T2, High affinity choline transporter 1 (Homo sapiens, UniProt Q9GZV3); test: CHT inhibitors, dose response, cell-based, 5-point CRC, membrane potential dye (AID 504840); type: functional
T2 sequence (Q9GZV3 whole entry): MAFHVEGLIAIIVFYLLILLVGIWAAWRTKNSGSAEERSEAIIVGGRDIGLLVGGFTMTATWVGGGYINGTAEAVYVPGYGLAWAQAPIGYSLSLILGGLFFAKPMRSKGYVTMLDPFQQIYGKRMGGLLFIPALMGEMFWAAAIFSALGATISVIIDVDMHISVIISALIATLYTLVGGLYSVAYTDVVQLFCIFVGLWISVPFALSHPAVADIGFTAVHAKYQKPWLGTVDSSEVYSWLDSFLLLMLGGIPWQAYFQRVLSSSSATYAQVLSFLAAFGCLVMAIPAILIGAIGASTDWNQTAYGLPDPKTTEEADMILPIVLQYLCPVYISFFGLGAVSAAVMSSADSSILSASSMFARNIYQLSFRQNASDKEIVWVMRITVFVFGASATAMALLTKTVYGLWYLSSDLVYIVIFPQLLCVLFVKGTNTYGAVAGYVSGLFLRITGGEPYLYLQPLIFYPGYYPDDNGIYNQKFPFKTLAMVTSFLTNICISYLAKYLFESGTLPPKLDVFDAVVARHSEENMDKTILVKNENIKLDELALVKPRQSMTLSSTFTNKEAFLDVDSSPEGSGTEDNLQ

Vero = Vero cell cytotoxicity, cytotoxicity control for flavivirus capping enzyme inhibitors (AID 588742); type: functional; settings: Chlorocebus sabaeus
Protein RecA = biological target: T3, Protein RecA (Mycobacterium tuberculosis, UniProt P9WHJ3); test: Fluorescence Cell-Free Homogeneous Dose Retest to Identify Inhibitors of RecA-Intein Splicing Activity. [Related pubchem assays (depositor defined):AID2097, AID2223, AID489010, AID492950]; type: functional
T3 sequence (P9WHJ3 whole entry): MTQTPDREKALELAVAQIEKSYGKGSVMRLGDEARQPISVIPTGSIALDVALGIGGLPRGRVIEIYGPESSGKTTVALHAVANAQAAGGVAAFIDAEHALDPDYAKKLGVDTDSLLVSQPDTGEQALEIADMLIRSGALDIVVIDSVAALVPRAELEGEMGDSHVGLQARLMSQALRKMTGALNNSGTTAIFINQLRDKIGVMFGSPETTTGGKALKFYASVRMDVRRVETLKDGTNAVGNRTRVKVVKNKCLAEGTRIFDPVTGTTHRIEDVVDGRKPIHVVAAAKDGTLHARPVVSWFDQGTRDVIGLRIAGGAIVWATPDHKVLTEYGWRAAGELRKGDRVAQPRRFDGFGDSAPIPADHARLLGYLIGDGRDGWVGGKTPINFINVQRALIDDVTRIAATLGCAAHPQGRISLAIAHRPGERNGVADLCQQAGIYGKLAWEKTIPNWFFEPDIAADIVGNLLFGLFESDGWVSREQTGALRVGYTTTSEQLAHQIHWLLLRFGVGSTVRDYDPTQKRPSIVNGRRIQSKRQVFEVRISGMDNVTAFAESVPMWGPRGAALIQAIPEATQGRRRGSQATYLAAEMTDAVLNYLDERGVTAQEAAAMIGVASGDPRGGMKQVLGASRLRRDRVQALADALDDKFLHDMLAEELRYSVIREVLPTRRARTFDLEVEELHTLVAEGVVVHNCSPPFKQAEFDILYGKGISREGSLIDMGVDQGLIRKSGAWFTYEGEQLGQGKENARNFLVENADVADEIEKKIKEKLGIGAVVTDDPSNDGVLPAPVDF

[6] = biological target: T2, High affinity choline transporter 1; test: CHT inhibitors, dose response, cell-based, 10-point CRC, membrane potential dye (AID 588401); type: functional;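 note: membrane potential dye fluorescence of choline-evoked depolarization via CHT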
Genome polyprotein = Genome polyprotein (dengue virus type 2, UniProt P29990); test: Dengue-2 NS5 methyltransferase inhibitors, primary screen, biochemical, confirmation dose response (AID 588689); type: functional
Sequence of Genome polyprotein (P29990 2492-3391 limits assumed): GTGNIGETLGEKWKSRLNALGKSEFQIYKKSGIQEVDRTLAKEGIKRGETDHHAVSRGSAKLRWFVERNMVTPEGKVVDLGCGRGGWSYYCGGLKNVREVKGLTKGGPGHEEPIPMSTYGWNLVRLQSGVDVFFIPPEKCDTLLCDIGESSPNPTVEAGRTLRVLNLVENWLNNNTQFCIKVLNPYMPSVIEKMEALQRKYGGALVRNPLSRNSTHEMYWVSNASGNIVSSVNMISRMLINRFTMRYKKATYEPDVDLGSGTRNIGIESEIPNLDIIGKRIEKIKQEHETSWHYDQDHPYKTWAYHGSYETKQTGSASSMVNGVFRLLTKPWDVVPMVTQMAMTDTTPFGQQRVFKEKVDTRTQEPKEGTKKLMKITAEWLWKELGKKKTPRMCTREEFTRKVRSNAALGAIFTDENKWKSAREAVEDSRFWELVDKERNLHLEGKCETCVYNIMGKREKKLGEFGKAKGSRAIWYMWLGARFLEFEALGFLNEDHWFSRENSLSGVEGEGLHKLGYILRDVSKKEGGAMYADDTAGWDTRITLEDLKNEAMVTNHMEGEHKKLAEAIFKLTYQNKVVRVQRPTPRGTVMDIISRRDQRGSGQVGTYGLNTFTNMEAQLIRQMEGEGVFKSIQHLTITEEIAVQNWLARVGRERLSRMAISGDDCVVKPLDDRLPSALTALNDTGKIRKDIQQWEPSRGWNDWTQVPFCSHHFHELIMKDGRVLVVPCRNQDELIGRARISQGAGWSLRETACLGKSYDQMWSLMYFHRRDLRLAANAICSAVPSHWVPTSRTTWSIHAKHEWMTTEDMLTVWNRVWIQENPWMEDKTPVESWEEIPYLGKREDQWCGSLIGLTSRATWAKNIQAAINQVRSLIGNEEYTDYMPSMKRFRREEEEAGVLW

[7] = Shn3 3'UTR reporter inhibitors, dose response, cell-based, Clone20 osteoblasts, firefly luciferase, cherry-picked (AID 624132); type: functional;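 note: firefly luciferase luminescence from reporter carrying the Shn3 3'UTR in osteoblasts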
[8] = control 3'UTR Renilla luciferase suppression, dose response, counter-screen for Shn3 inhibitor project, cell-based, Clone20-Shn3RL, cherry-picked (AID 624133); type: functional
[9] = biological target: Hepatocyte nuclear factor 4-alpha (Homo sapiens, UniProt P41235); type: functional, cell-based;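 note: biochemical luminescence-based dose-response counterscreen measuring inhibition of HNF4 dimerization, run alongside a screen for blockers of ABHD5–perilipin-5 interaction; split luciferase complementation of HNF4 fusion proteins in cell lysate measuring dimerization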
Sequence of Hepatocyte nuclear factor 4-alpha (P41235 whole entry, the tested form may be a part): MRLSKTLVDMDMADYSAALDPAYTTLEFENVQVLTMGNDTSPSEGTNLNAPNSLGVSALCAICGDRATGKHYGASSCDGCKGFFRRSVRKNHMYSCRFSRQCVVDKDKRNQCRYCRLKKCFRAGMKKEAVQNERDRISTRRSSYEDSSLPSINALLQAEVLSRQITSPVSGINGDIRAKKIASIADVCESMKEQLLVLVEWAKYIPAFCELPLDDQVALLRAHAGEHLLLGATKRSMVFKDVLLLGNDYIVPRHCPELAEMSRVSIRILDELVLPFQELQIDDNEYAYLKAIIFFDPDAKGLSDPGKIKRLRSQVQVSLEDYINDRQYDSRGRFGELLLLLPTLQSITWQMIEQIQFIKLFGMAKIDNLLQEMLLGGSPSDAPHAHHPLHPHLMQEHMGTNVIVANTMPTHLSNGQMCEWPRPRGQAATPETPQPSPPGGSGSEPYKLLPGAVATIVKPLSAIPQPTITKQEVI

[10] = biological target: T4, Sphingosine 1-phosphate receptor 2 (Homo sapiens, UniProt O95136); test: Dose Response Cell Based Assay for Agonists of the S1P2 Receptor of Purchased Analogues. [Related pubchem assays: 729, 843, 854, 736 ]; type: functional
T4 sequence (O95136 whole entry): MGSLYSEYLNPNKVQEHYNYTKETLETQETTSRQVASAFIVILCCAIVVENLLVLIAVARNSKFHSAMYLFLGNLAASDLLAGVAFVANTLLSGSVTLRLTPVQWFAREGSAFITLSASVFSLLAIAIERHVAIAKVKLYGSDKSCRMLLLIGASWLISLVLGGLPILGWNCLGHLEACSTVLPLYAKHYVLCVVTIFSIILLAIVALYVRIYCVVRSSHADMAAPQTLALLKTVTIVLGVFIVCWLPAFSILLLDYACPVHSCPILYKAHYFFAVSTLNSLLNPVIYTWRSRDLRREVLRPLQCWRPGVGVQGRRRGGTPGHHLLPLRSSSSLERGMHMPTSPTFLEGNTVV

Streptokinase A = biological target: T5, Streptokinase A (Streptococcus pyogenes serotype M1, UniProt P10520); test: Absorbance Microorganism-Based Dose Response Follow up to Identify Inhibitors of Streptokinase Expression. [Related pubchem assays: 1677 (Project Summary), 1915, 1914, 1902 (Retest at Dose), 1900 (Counter Screen), 1662 (Primary HTS)]; type: functional, Streptococcus pyogenes M1 GAS
T5 sequence (P10520 whole entry): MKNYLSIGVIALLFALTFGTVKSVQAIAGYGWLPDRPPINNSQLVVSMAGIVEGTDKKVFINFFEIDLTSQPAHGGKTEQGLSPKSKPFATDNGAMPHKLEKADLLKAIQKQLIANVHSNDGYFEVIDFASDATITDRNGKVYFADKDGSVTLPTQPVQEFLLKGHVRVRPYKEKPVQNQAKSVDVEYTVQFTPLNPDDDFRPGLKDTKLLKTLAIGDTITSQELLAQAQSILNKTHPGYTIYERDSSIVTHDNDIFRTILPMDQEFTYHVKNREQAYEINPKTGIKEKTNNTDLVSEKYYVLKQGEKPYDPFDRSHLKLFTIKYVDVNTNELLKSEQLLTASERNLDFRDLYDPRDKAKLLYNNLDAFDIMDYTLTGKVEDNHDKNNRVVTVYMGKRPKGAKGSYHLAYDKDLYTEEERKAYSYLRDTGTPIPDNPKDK

Streptococcus = test: Streptococcus pyogenes growth inhibition counter-screen, dose response, counter-screen for streptokinase expression inhibitor project, luminescence, BacTiter-Glo, strain UMAA2166 (AID 2477); type: functional, organism-based
[11] = biological target: T4, Sphingosine 1-phosphate receptor 2; test: Dose Response Cell Based Assay for Antagonists of the S1P2 Receptor. [Related pubchem assays: 856, 736 ]; type: functional
BJ [12] = test: cytotoxicity toward BJ-TERT fibroblasts, dose response, cell-based, RAS-independent, luminescence (AID 1933); type: functional; settings: Homo sapiens
BJ [13] = test: cells; type: functional, cell-based; settings: Homo sapiens
[14] = biological target: T6, Mannose-6-phosphate isomerase (Homo sapiens, UniProt P34949); test: inhibitors of human PMI, primary screen, biochemical, fluorescence intensity, coupled assay (AID 1209)
T6 sequence (P34949 whole entry): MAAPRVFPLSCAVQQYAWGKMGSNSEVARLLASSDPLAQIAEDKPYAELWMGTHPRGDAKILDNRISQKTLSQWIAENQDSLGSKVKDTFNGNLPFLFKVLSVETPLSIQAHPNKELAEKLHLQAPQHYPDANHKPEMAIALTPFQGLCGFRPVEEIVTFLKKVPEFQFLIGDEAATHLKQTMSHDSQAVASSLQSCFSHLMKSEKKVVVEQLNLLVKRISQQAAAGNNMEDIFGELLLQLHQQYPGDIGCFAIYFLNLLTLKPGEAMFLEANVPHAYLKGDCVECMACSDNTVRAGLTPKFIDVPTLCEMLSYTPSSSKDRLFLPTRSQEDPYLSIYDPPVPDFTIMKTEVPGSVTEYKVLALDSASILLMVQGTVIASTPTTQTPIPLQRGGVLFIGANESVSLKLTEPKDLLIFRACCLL

BJ [15] = test: cytotoxicity toward BJ-TERT-LT-ST fibroblasts, dose response, cell-based, RAS-independent, luminescence (AID 1935); type: functional; settings: Homo sapiens;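 note: BJ fibroblasts immortalized with TERT plus LT and ST oncogenes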
[16] = cytotoxicity toward DRD oncogenic fibroblasts, dose response, cell-based, non-viral oncogenic, luminescence (AID 1934); type: functional; settings: Homo sapiens
[17] = THP-1 cell cytotoxicity, dose response, cytotoxicity control for non-replicating M. tuberculosis project (AID 489025); type: functional
[18] = Vero E6 cell cytotoxicity, dose response, cytotoxicity control for non-replicating M. tuberculosis project, secondary assay (AID 492998); type: functional, VeroE6; settings: Vero C1008
Nonstructural protein 1 = Nonstructural protein 1 (Influenza A virus, UniProt Q194T2); type: functional, Influenza A virus (A/California/07/2009(H1N1))
Sequence of Nonstructural protein 1 (Q194T2 whole entry): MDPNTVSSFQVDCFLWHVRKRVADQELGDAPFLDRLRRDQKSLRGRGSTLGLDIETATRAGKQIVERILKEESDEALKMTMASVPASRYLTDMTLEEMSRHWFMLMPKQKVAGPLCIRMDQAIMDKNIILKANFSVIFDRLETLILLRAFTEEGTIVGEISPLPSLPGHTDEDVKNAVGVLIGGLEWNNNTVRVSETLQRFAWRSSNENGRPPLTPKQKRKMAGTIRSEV

cells = type: functional
BJ [19] = test: cytotoxicity toward Ras-transformed BJeLR fibroblasts, dose response, cell-based, alamar blue fluorescence, cherrypicked samples (AID 2631); type: functional; settings: Homo sapiens;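 note: confirmatory dose-response assay in RAS-dependent BJ fibroblasts engineered with TERT, LT and ST, with cytotoxicity read by fluorescence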
INS1 = test: beta cell apoptosis inhibitors, cytokine rescue, dose response, luminescence, retest (AID 449756); type: functional, cell-based; settings: Rattus norvegicus;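 note: cell death triggered by IL-1 beta plus TNF-alpha plus IFN-gamma mixture; protective hits raise ATP signal compared with cytokine alone wells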

## CCc1nnc(NC(=O)c2nc(S(=O)(=O)Cc3cccc(C)c3)ncc2Cl)s1
[1]
  EC50: > 120 µM (not active)
[2]
  EC50: > 120 µM (not active)
H4
  EC50: > 120 µM (not active)
[3]
  EC50: 16.8 µM (active)
[4]
  AC50: 5.05 µM (active)
[5]
  IC50: 2.4 µM (active)
Vero
  CC50: 26.6 µM (active)
Protein RecA
  EC50: 4.37 µM (active)
[6]
  IC50: 2.82 µM (active)
Genome polyprotein
  IC50: > 100 µM (active)
[7]
  AC50: 2.51 µM (active)
[8]
  AC50: 6.99 µM (active)
[9]
  IC50: 5.05 µM (active)

## Cc1cc(C(=O)CN(C)CC(=O)N(C)C)c(C)n1Cc1ccccc1
[10]
  EC50: > 30 µM (not active)

## COc1cccc(-c2nc(OC(C)C)c3ccccc3n2)c1
Streptokinase A
  EC50: 8.2 µM (active)
Streptococcus
  EC50: 68.7 µM (active)

## CC1=C(C)/C(=N\OS(=O)(=O)c2ccccc2)C=CC1=O
[11]
  IC50: 4.33 µM (active)
[1]
  EC50: > 120 µM (not active)
[2]
  EC50: > 120 µM (not active)
BJ [12]
  EC50: 2.78 µM (inconclusive)
H4
  EC50: > 120 µM (not active)
BJ [13]
  EC50: 2.92 µM (active)
[14]
  IC50: 6.61 µM (active)
BJ [15]
  EC50: 4.32 µM (inconclusive)
[16]
  EC50: 4.57 µM (active)
[17]
  CC50: 12.1 µM (active)
[18]
  CC50: > 20 µM (active)
Nonstructural protein 1
  IC50: > 100 µM (active)
cells
  IC50: 11.4 µM (active)
[4]
  AC50: 87.4 µM (active)
BJ [19]
  EC50: 0.557 µM (inconclusive)
Protein RecA
  EC50: 7.72 µM (active)
INS1
  AC50: 1.92 µM (active)
